Laboratory results as given in patent US20150216937A1, “METHODS FOR TREATING NEOPLASIA” (Altor BioScience Corporation, priority 2012, published 2015).
Read-outs that look alike come from different tables or passages of the source.

Assays:
[1] = system: UMUC-14 cells; assay: WST-1 cell proliferation assay, UMUC-14; format: cell-based, human; conditions: WST-1 reagent, 24 hours, read-out: IC50, inhibition of UMUC-14 cell growth
Experimental: (§1) The sensitivity of the human bladder tumor cell lines to gemcitabine and cisplatin was further assessed using a cell proliferation assay. UMUC-14 and KU7P cells were plated in media containing various amounts of gemcitabine and cisplatin and cell proliferation was determined using the WST-1 reagent 24 hours later.

[2] = system: KU7P cells; assay: WST-1 cell proliferation assay, KU7P; format: cell-based, human; conditions: WST-1 reagent, 24 hours, read-out: IC50, inhibition of KU7P cell growth
Experimental: as §1

[3] = system: HLA-A2+ p53+ UMUC-14 cells; assay: In vitro 24-hour incubation of UMUC-14 cells with chemotherapeutic agents; format: cell-based, human; conditions: G0/G1 cell cycle arrest
Experimental: The anti-tumor efficacy of multi-dose administration of […] (ALT-801), alone and in combination with gemcitabine and cisplatin, was evaluated on primary tumor growth in athymic nude mice bearing human bladder UMUC-14 and KU7P cells. Treatment with a gemcitabine and cisplatin regimen is the standard-of-care for patients with metastatic bladder cancer. To assess the in vitro effects of these chemotherapeutic agents on human bladder cancer cells, HLA-A2^+ p53^+ UMUC-14 cells were treated with gemcitabine and cisplatin, alone and in combination.

[4] = system: subcutaneous KU7P human bladder tumors; assay: Subcutaneous KU7P xenograft, monotherapy; format: in vivo, nude mice; conditions: Gem 40 mg/kg, MART-1scTCR/IL-2 2.19 mg/kg, ALT-801 1.6 mg/kg
[5] = system: Gr1+CD11b+ MDSCs; assay: Spleen Gr1+CD11b+ MDSCs after gemcitabine; format: in vivo, C57BL/6 mice; conditions: 40 mg/kg i.v., three days after; untreated tumor-bearing 4.29 (±1.32), normal 1.19 (±0.25)
Experimental: Gemcitabine is one of the drugs in the standard combination chemotherapy for muscle invasive bladder cancer. It has been reported that gemcitabine reduces myeloid-derived suppressor cells (MDSCs) in tumor-bearing mice. In this report, we studied the effect of gemcitabine on MDSCs induced by MB49luc cells in mice. MB49luc tumor-bearing mice were treated intravenously with gemcitabine at 40 mg/kg. Three days after gemcitabine treatment, splenocytes were isolated and the percentage of Gr1^+CD11b^+ MDSCs was determined by flow cytometry. The MDSCs accounted for 1.19 (±0.25) percent of the splenocytes in normal control mice without MB49luc tumors. These MDSCs increased to 4.29 (±1.32) percent of splenocytes in MB49luc tumor-bearing mice.

[6] = system: subcutaneous MB49G tumors; assay: Gemcitabine resistant subcutaneous MB49G tumor model; format: in vivo, mice; conditions: ALT-801 0.8 mg/kg (sub-optimal dose), gemcitabine 40 mg/kg
Text: As potent suppressors of various immune cell functions, MDSCs are potential therapeutic targets for anticancer treatment. For example, gemcitabine, a widely-used chemotherapeutic, can selectively eliminate MDSCs in tumor-bearing animals and enhance tumor-suppressive immune activity (Suzuki et al., Clin Cancer Res, 11: 6713-6721, 2005).

[7] = system: MB49luc cells; assay: Effect of IFN-γ on MB49luc cells, Annexin V flow cytometry; format: cell-based, mouse; conditions: 1 or 10 ng/mL
Experimental: In the second part of this study, the effect of IFN-γ on MB49luc cell growth was investigated. MB49luc cells (2×10^5/well) were cultured in RPMI-10 with IFN-γ at 1 or 10 ng/mL. The IFN-γ-treated MB49luc cells were harvested and stained with FITC-labeled Annexin V. The Annexin V positive apoptotic MB49luc cells were determined by flow cytometry.

Row | Compound | IC50 [1] [µM] | IC50 [2] [µM] | UMUC-14 cell proliferation [3] | IC50 ([1]; Homo sapiens, UMUC14) [µM] | IC50 ([2]; Homo sapiens) [µM] | growth of subcutaneous KU7P tumors compared to PBS treated mice [4] | spleen Gr1+CD11b+ MDSCs as percent of splenocytes [5] | tumor growth / progression compared to PBS treated mice [6] | cytotoxicity against MB49luc cells (Annexin V positive apoptotic cells) [7]
1 | N.N.[Cl][Pt][Cl] [cisplatin] | 9.2 | 1.4 | dose dependent decrease | – | – | – | – | – | –
2 | Nc1ccn([C@@H]2O[C@H](CO)[C@@H](O)C2(F)F)c(=O)n1 [gemcitabine] | – | – | dose dependent decrease | 2030 | 0.05 | statistically significant decrease | 1.83 (±0.92) percent | did not significant differ | –
3 | IFN-γ: cytokine added to MB49luc cell cultures | – | – | – | – | – | – | – | – | does not directly result in detectable cytotoxicity
